Data: patent publication US20120264685A1 (priority 2009, published 2012)
Where a SMILES comes first, the peptide text is derived from it. [ ]: non-standard residue; d: D form. ξ: configuration not given here. ξαMeBip(2'-Et,4'-OMe) = CCc1cc(OC)ccc1-c1ccc(CC(C)(N)C(=O)O)cc1; ξBip(2'-Et-4'-OMe) = CCc1cc(OC)ccc1-c1ccc(CC(N)C(=O)O)cc1; ξαMePhe(2,6-F2) = CC(N)(Cc1c(F)cccc1F)C(=O)O; ξαMe(hhPhe) = CC(N)(CCCc1ccccc1)C(=O)O; ξαMePhe(2-F) = CC(N)(Cc1ccccc1F)C(=O)O; ξhhPhe = NC(CCCc1ccccc1)C(=O)O; ξαMeD = CC(N)(CC(=O)O)C(=O)O; ξαMeS = CC(N)(CO)C(=O)O; Aib = CC(C)(N)C(=O)O

Key:
[1] = tested on: RIN5F (Rat Insulinoma) cells; test: In vitro glucose-dependent insulin secretion (RIN5F cell assay); type: cell-based; conditions: 16.7-mM glucose load, n = 3, mean ± S.D.
Outline: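 Rat RIN5F cells were preincubated 40 min in Krebs-Ringer buffer with 1.1 mM glucose and 0.5% BSA, pH 7.4, then exposed to test peptidomimetics for 30 min at 37 °C with 16.7 mM or 0 mM glucose. Supernatant insulin was measured by rat insulin ELISA and normalised to total protein (BCA), as pg/μg.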

DPP IV enzyme = DPP IV enzyme (Homo sapiens, UniProt P27487); test: Stability against DPP IV enzyme; type: in vitro ADME; conditions: 2 μM, 37° C.; for half-life: read-out: half-life (t1/2) with DPP-IV enzyme
Description: (§1) Different peptidomimetics (final concentration 2 μM) were incubated with either DPP IV (1:25 mU) or pooled human plasma (7.5 μL) or simulated gastric fluid (pH 1.5; composition HCl, NaCl and Pepsin) or simulated intestinal fluid (pH 7.5) or human liver microsomes, for 0, 2, 4, 6, 12 and 24 h (37° C.; 50 mM triethanolamine-HCl buffer; pH 7.8). […] Reactions were terminated by the addition of TFA/H2O ([…], 10% (v/v)). The reaction products were then applied to a Vydac C18 analytical column (4.6×250-mm) and the major degradation fragment separated from intact peptidomimetic. The column was equilibrated with TFA/H20, at a flow rate of 1 mL/min. Using 0.1% (v/v) TFA in 70% acetonitrile/H2O, the concentration of acetonitrile in the eluting solvent was raised from 0% to 28% over 10 min and from 28% to 42% over 30 min. The absorbance was monitored at 206 nm using UV detector and peaks were collected manually prior to ESI-MS analysis. Area under the curve was measured for test peptidomimetics and their metabolites and percentage degradation were calculated at each time point over a period of 24 h.

[2] = Stability in human plasma; type: in vitro ADME; conditions: 2 μM, 37° C.; for half-life: human, plasma, read-out: half-life (t1/2) in human plasma
Description: as §1

[3] = Stability in simulated gastric fluid; type: in vitro ADME; conditions: 2 μM, 37° C.; for % degradation in 24 h when incubated with simulated gastric fluid: pH 1.5, 24 h; for half-life: simulated gi fluid, read-out: half-life (t1/2) in simulated gastric fluid; for half-life / half-life (t1/2) in simulated gastric fluid: pH 1.5
Description: (§2) Reactions were terminated by the addition of TFA/H2O ([…], 10% (v/v)). […] The column was equilibrated with TFA/H20, at a flow rate of 1 mL/min. […] The absorbance was monitored at 206 nm using UV detector and peaks were collected manually prior to ESI-MS analysis.

[4] = Stability in simulated intestinal fluid; type: in vitro ADME; conditions: 2 μM, 37° C.; for % degradation in 24 h when incubated with simulated intestinal fluid: pH 7.5, 24 h; for half-life: simulated gi fluid, read-out: half-life (t1/2) in simulated intestinal fluid; for half-life / half-life (t1/2) in simulated intestinal fluid: pH 7.5
Description: as §2

[5] = Stability in liver microsomes; type: in vitro ADME, human; conditions: 2 μM, 37° C.; for half-life: human, microsomes, read-out: half-life (t1/2) in liver microsomes
Description: as §2

Sequence of DPP IV enzyme (P27487 whole entry, species assumed, the tested form may be a part): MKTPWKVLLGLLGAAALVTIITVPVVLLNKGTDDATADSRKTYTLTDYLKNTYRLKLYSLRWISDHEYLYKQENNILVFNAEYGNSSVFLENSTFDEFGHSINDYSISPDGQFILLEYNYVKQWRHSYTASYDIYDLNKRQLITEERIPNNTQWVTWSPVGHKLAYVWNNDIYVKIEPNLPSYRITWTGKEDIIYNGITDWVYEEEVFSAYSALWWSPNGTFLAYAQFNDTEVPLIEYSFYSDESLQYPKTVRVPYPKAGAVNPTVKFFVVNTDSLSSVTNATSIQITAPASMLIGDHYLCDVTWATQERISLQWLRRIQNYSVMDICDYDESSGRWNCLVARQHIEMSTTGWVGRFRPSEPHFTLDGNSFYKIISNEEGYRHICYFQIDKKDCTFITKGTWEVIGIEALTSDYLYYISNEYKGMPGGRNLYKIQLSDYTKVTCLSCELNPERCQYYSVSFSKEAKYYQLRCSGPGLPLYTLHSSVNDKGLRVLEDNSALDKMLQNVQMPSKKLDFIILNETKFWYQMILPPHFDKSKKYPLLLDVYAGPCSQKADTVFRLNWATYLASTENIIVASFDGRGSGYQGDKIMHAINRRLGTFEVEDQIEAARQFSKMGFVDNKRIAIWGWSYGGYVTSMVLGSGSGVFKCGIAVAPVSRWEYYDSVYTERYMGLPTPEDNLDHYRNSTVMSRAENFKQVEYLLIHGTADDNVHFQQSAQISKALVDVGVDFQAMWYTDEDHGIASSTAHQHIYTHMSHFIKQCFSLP

## CCc1cc(OC)ccc1-c1ccc(CC(C)(NC(=O)[C@H](CC(=O)O)NC(=O)C(C)(CO)NC(=O)[C@@H](NC(=O)C(C)(Cc2c(F)cccc2F)NC(=O)[C@@H](NC(=O)CNC(=O)[C@H](CCC(N)=O)NC(=O)[C@H](C)NC(=O)[C@H](Cc2c[nH]cn2)NC(=O)[C@@H](N)C(C)C)[C@@H](C)O)[C@@H](C)O)C(=O)NC(CCCc2ccccc2)C(N)=O)cc1 (stereo partly drawn) [compound 50] (H-VHAQGT[ξαMePhe(2,6-F2)]T[ξαMeS]D[ξαMeBip(2'-Et,4'-OMe)][ξhhPhe]-NH2)
[1]; 0.1 nM test compd.
  Insulin secretion: 12.9 ± 0.14 pg/µg/h
[1]; 1 nM test compd.
  Insulin secretion: 15.8 ± 0.13 pg/µg/h
[1]; 10 nM test compd.
  Insulin secretion: 29.9 ± 0.15 pg/µg/h
DPP IV enzyme
  % degradation in 24 h when incubated with DPP-IV enzyme: 75%
[2]
  half-life (t1/2) in human plasma: (9) h
  % degradation in 24 h when incubated with human plasma: 77%
[3]
  % degradation in 24 h when incubated with simulated gastric fluid: 100%
  half-life: 0.5 h
[4]
  % degradation in 24 h when incubated with simulated intestinal fluid: 100%
  half-life: 0.5 h
[5]
  % degradation in 24 h when incubated with liver microsomes: 100%
  half-life: 0.5 h

## CCc1cc(OC)ccc1-c1ccc(CC(C)(NC(=O)C(C)(CC(=O)O)NC(=O)[C@H](CO)NC(=O)[C@@H](NC(=O)[C@H](Cc2ccccc2)NC(=O)[C@@H](NC(=O)CNC(=O)[C@H](CCC(N)=O)NC(=O)[C@H](C)NC(=O)[C@H](Cc2c[nH]cn2)NC(=O)[C@@H](N)C(C)C)[C@@H](C)O)[C@@H](C)O)C(=O)NC(CCCc2ccccc2)C(N)=O)cc1 (stereo partly drawn) [compound 58] (H-VHAQGTFTS[ξαMeD][ξαMeBip(2'-Et,4'-OMe)][ξhhPhe]-NH2)
[1]; 0.1 nM test compd.
  Insulin secretion: 16.1 ± 0.22 pg/µg/h
[1]; 1 nM test compd.
  Insulin secretion: 22.1 ± 0.26 pg/µg/h
[1]; 10 nM test compd.
  Insulin secretion: 36.0 ± 0.36 pg/µg/h
DPP IV enzyme
  % degradation in 24 h when incubated with DPP-IV enzyme: 71%
  half-life: 8 h
[2]
  % degradation in 24 h when incubated with human plasma: 69%
  half-life: 8 h
[3]
  % degradation in 24 h when incubated with simulated gastric fluid: 11%
  half-life: 7 h
[4]
  half-life (t1/2) in simulated intestinal fluid: (6) h
  % degradation in 24 h when incubated with simulated intestinal fluid: 43%
[5]
  % degradation in 24 h when incubated with liver microsomes: 77%
  half-life: 2 h

## CCc1cc(OC)ccc1-c1ccc(CC(C)(NC(=O)C(C)(CC(=O)O)NC(=O)[C@H](CO)NC(=O)[C@@H](NC(=O)[C@H](Cc2ccccc2)NC(=O)[C@@H](NC(=O)CNC(=O)[C@H](CCC(=O)O)NC(=O)[C@H](C)NC(=O)[C@H](Cc2c[nH]cn2)NC(=O)[C@@H](N)C(C)C)[C@@H](C)O)[C@@H](C)O)C(=O)NC(CCCc2ccccc2)C(N)=O)cc1 (stereo partly drawn) [compound 62] (H-VHAEGTFTS[ξαMeD][ξαMeBip(2'-Et,4'-OMe)][ξhhPhe]-NH2)
[1]; 0.1 nM test compd.
  Insulin secretion: 16.6 ± 0.41 pg/µg/h
[1]; 1 nM test compd.
  Insulin secretion: 22.9 ± 0.32 pg/µg/h
[1]; 10 nM test compd.
  Insulin secretion: 36.7 ± 0.11 pg/µg/h
DPP IV enzyme
  % degradation in 24 h when incubated with DPP-IV enzyme: 00%
  half-life: > 24 h
[2]
  % degradation in 24 h when incubated with human plasma: 00%
  half-life: > 24 h
[3]
  % degradation in 24 h when incubated with simulated gastric fluid: 00%
  half-life: > 24 h
[4]
  % degradation in 24 h when incubated with simulated intestinal fluid: 00%
  half-life: > 24 h
[5]
  half-life (t1/2) in liver microsomes: (5) h
  % degradation in 24 h when incubated with liver microsomes: 35%

## CCc1cc(OC)ccc1-c1ccc(CC(C)(NC(=O)C(C)(CC(=O)O)NC(=O)[C@H](CO)NC(=O)[C@@H](NC(=O)C(C)(Cc2ccccc2F)NC(=O)[C@@H](NC(=O)CNC(=O)[C@H](CCC(=O)O)NC(=O)[C@H](CO)NC(=O)[C@H](Cc2c[nH]cn2)NC(=O)[C@@H](N)C(C)C)[C@@H](C)O)[C@@H](C)O)C(=O)NC(CCCc2ccccc2)C(N)=O)cc1 (stereo partly drawn) [compound 69] (H-VHSEGT[ξαMePhe(2-F)]TS[ξαMeD][ξαMeBip(2'-Et,4'-OMe)][ξhhPhe]-NH2)
[1]; 0.1 nM test compd.
  Insulin secretion: 16.2 ± 0.13 pg/µg/h
[1]; 1 nM test compd.
  Insulin secretion: 22.4 ± 0.19 pg/µg/h
[1]; 10 nM test compd.
  Insulin secretion: 36.2 ± 0.09 pg/µg/h
DPP IV enzyme
  % degradation in 24 h when incubated with DPP-IV enzyme: 76%
  half-life: 9 h
[2]
  % degradation in 24 h when incubated with human plasma: 78%
  half-life: 8 h
[3]
  half-life (t1/2) in simulated gastric fluid: (8) h
  % degradation in 24 h when incubated with simulated gastric fluid: 14%
[4]
  half-life (t1/2) in simulated intestinal fluid: (6) h
  % degradation in 24 h when incubated with simulated intestinal fluid: 43%
[5]
  % degradation in 24 h when incubated with liver microsomes: 80%
  half-life: 1 h

## CCc1cc(OC)ccc1-c1ccc(CC(C)(NC(=O)C(C)(CC(=O)O)NC(=O)[C@H](CO)NC(=O)[C@@H](NC(=O)C(C)(Cc2c(F)cccc2F)NC(=O)[C@@H](NC(=O)CNC(=O)[C@H](CCC(N)=O)NC(=O)C(C)(C)NC(=O)[C@H](Cc2c[nH]cn2)NC(=O)[C@@H](N)C(C)C)[C@@H](C)O)[C@@H](C)O)C(=O)NC(CCCc2ccccc2)C(N)=O)cc1 (stereo partly drawn) [compound 75] (H-VH[Aib]QGT[ξαMePhe(2,6-F2)]TS[ξαMeD][ξαMeBip(2'-Et,4'-OMe)][ξhhPhe]-NH2)
[1]; 0.1 nM test compd.
  Insulin secretion: 16.4 ± 0.12 pg/µg/h
[1]; 1 nM test compd.
  Insulin secretion: 22.7 ± 0.17 pg/µg/h
[1]; 10 nM test compd.
  Insulin secretion: 36.6 ± 0.05 pg/µg/h
DPP IV enzyme
  % degradation in 24 h when incubated with DPP-IV enzyme: 74%
  half-life: 9 h
[2]
  % degradation in 24 h when incubated with human plasma: 75%
  half-life: 8 h
[3]
  half-life (t1/2) in simulated gastric fluid: (8) h
  % degradation in 24 h when incubated with simulated gastric fluid: 12%
[4]
  half-life (t1/2) in simulated intestinal fluid: (6) h
  % degradation in 24 h when incubated with simulated intestinal fluid: 46%
[5]
  % degradation in 24 h when incubated with liver microsomes: 83%
  half-life: 1 h

## CCc1cc(OC)ccc1-c1ccc(CC(NC(=O)[C@H](CC(=O)O)NC(=O)[C@H](CO)NC(=O)[C@@H](NC(=O)[C@H](Cc2ccccc2)NC(=O)[C@@H](NC(=O)CNC(=O)[C@H](CCC(N)=O)NC(=O)[C@H](CO)NC(=O)[C@H](Cc2c[nH]cn2)NC(=O)[C@@H](N)C(C)C)[C@@H](C)O)[C@@H](C)O)C(=O)NC(C)(CCCc2ccccc2)C(N)=O)cc1 (stereo partly drawn) [compound 81] (H-VHSQGTFTSD[ξBip(2'-Et-4'-OMe)][ξαMe(hhPhe)]-NH2)
[1]; 0.1 nM test compd.
  Insulin secretion: 16.8 ± 0.20 pg/µg/h
[1]; 1 nM test compd.
  Insulin secretion: 22.7 ± 0.29 pg/µg/h
[1]; 10 nM test compd.
  Insulin secretion: 36.6 ± 0.31 pg/µg/h
DPP IV enzyme
  % degradation in 24 h when incubated with DPP-IV enzyme: 70%
  half-life: 9 h
[2]
  % degradation in 24 h when incubated with human plasma: 71%
  half-life: 8 h
[3]
  half-life (t1/2) in simulated gastric fluid: (8) h
  % degradation in 24 h when incubated with simulated gastric fluid: 14%
[4]
  half-life (t1/2) in simulated intestinal fluid: (6) h
  % degradation in 24 h when incubated with simulated intestinal fluid: 40%
[5]
  % degradation in 24 h when incubated with liver microsomes: 78%
  half-life: 1 h

## CCc1cc(OC)ccc1-c1ccc(CC(NC(=O)[C@H](CC(=O)O)NC(=O)[C@H](CO)NC(=O)[C@@H](NC(=O)C(C)(Cc2ccccc2F)NC(=O)[C@@H](NC(=O)CNC(=O)[C@H](CCC(N)=O)NC(=O)[C@H](C)NC(=O)[C@H](Cc2c[nH]cn2)NC(=O)[C@@H](N)C(C)C)[C@@H](C)O)[C@@H](C)O)C(=O)NC(C)(CCCc2ccccc2)C(N)=O)cc1 (stereo partly drawn) [compound 92] (H-VHAQGT[ξαMePhe(2-F)]TSD[ξBip(2'-Et-4'-OMe)][ξαMe(hhPhe)]-NH2)
[1]; 0.1 nM test compd.
  Insulin secretion: 16.9 ± 0.22 pg/µg/h
[1]; 1 nM test compd.
  Insulin secretion: 22.8 ± 0.31 pg/µg/h
[1]; 10 nM test compd.
  Insulin secretion: 36.7 ± 0.34 pg/µg/h
DPP IV enzyme
  % degradation in 24 h when incubated with DPP-IV enzyme: 00%
  half-life: > 24 h
[2]
  % degradation in 24 h when incubated with human plasma: 00%
  half-life: > 24 h
[3]
  % degradation in 24 h when incubated with simulated gastric fluid: 55%
  half-life: 4 h
[4]
  % degradation in 24 h when incubated with simulated intestinal fluid: 00%
  half-life: > 24 h
[5]
  % degradation in 24 h when incubated with liver microsomes: 84%
  half-life: 2 h
